From US20130217664A1, “NOVEL COMPOUNDS USEFUL FOR THE TREATMENT OF DEGENERATIVE AND INFLAMMATORY DISEASES” (priority 2012, published 2013)
Read-outs that look alike come from different tables or passages of the source.

Key:
CTLL-2 cell line = test: CTLL2 viability assay; type: cell-based; conditions: Mus musculus, IL-2 dependent CTLL2 viability, 24 h, ATP-lite
Description: The protocol describes the methods to analyse the activity of compounds on their ability to sustain the IL2-dependent viability of CTLL2.
Final DMSO concentration was 0.1%.

BA/F3 cell line = test: BA/F3 viability assay; conditions: Mus musculus, BaF3, 48 h, read-out: BA/F3 IC50
human JAK1 = target: T1, human JAK1 (Homo sapiens, UniProt P23458); test: JAK1 inhibition assay (polyGT substrate / Ulight-JAK1 peptide); type: biochemical; conditions: recombinant human JAK1 catalytic domain; polyGT or Ulight-JAK1 peptide assay
T1 construct: catalytic domain, amino acids 866-1154; catalog number PV4774; purchased Invitrogen PV4774
Procedure, shortened: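 Two formats. PolyGT radiometric: 45 min at 30 °C, stopped with phosphoric acid, counted as cpm. Ulight-JAK1 peptide: 60 min at room temperature, stopped with Eu-anti-phosphotyrosine/EDTA, read as RFU. Percent inhibition normalised to vehicle and 10 μM staurosporine.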

human TYK2 = target: T2, human TYK2 (Homo sapiens, UniProt P29597); test: TYK2 inhibition assay; type: biochemical; conditions: recombinant human TYK2 catalytic domain, polyGT substrate
T2 construct: catalytic domain (amino acids 871-1187; catalog number 08-147); purchased Carna Biosciences 08-147
T2 sequence (P29597 871-1187): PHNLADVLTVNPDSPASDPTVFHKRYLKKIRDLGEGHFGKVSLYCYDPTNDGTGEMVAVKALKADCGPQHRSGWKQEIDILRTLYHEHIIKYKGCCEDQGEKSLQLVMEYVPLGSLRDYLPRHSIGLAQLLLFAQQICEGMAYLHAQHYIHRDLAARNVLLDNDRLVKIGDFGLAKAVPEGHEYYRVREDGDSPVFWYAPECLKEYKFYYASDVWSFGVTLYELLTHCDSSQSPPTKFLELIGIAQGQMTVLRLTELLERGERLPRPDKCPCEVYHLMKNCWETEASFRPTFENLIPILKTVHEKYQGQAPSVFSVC
Procedure, shortened: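 Radiometric kinase reaction run 90 min at 30 °C, stopped with phosphoric acid, washed and scintillation-counted.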

human JAK3 = target: T3, human JAK3 (Homo sapiens, UniProt P52333); test: JAK3 inhibition assay; type: biochemical; conditions: recombinant human JAK3 catalytic domain; polyGT substrate
T3 construct: catalytic domain (amino acids 781-1124; catalog number PV3855); purchased Invitrogen PV3855
Procedure, shortened: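 Radiometric kinase assay: 0.5 ng JAK3 with 2.5 μg polyGT in Tris pH 7.5/MgCl2 buffer, 1 μM ATP plus 0.25 μCi 33P-γ-ATP, 1% DMSO, 45 min at 30 °C, stopped with phosphoric acid.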

[1] = test system: pSTAT1(2)-luciferase reporter in HeLa cells triggered with human OSM; test: JAK-STAT signalling assay; type: cell-based; conditions: HeLa cells, pSTAT1(2)-luciferase reporter, human OSM 33 ng/mL, read-out: JAK-STAT IC50
Procedure, shortened: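 HeLa cells transiently co-transfected with pSTAT1(2)-luciferase and LacZ control reporter, preincubated with compound 60 min, then stimulated with human OSM (33 ng/mL final) overnight at 37 °C. Luciferase read by luminescence; percent inhibition from vehicle and no-trigger controls, EC50 from dose-response.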

T1 sequence (P23458 866-1154): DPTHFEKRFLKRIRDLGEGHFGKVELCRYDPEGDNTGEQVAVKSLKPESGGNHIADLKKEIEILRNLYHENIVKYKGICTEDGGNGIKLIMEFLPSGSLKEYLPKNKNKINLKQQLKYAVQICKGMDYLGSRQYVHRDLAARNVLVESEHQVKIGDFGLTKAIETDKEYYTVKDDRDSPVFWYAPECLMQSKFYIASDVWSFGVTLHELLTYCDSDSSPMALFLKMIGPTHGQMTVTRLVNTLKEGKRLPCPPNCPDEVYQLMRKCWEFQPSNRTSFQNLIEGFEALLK
T3 sequence (P52333 781-1124): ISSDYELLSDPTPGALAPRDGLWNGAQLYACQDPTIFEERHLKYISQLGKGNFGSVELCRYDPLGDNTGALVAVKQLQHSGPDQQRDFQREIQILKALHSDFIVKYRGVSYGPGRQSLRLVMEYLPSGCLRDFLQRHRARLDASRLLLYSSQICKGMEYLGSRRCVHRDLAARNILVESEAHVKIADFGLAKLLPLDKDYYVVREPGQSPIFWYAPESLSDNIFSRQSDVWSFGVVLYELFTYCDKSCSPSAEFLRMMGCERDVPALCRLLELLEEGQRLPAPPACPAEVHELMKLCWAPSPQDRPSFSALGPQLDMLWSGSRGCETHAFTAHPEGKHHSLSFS

Row | IC50 (BA/F3 cell line) [nM] | IC50 (human JAK1) [nM] | IC50 (human TYK2) [nM] | IC50 (human JAK3) [nM] | IC50 [1] [nM] | IC50 ([1]; Homo sapiens, HeLa) [nM] | SMILES | IC50 (CTLL-2 cell line) [nM]
1 | > 5000 | 0.01 to 100 | 501 to 1000 | > 1000 | > 1000 |  | CCc1cc(CNC2COC2)ccc1N(C)c1cc2c(cn1)ncn2C [Compound 167, N-(2-ethyl-4-((oxetan-3-ylamino)methyl)phenyl)-N,1-dimethyl-1H-imidazo[4,5-c]pyridin-6-amine] | > 1000
2 | > 5000 | 0.01 to 100 | 101 to 500 | 501 to 1000 |  | > 1000 | CCc1cc(CNC(C)=O)ccc1N(C)c1cc2c(cn1)ncn2C [Compound 182, N-(3-Ethyl-4-(methyl(1-methyl-1H-imidazo[4,5-c]pyridin-6-yl)amino)benzyl)acetamide] | > 1000
3 | 1000 to 5000 | 0.01 to 100 | 0.01 to 100 | 101 to 500 |  | 1 to 500 | CCc1cc(C2CCOCC2)ccc1N(C)c1cc2c(cn1)ncn2C [Compound 186, N-(2-Ethyl-4-(tetrahydro-2H-pyran-4-yl)phenyl)-N,1-dimethyl-1H-imidazo[4,5-c]pyridin-6-amine] | > 1000
4 | 1000 to 5000 | 0.01 to 100 | 0.01 to 100 | 0.01 to 100 |  | 1 to 500 | CCc1cc(CNS(C)(=O)=O)ccc1N(C)c1cc2c(cn1)ncn2C [Compound 190, N-(3-Ethyl-4-(methyl(1-methyl-1H-imidazo[4,5-c]pyridin-6-yl)amino)benzyl)methane sulfonamide] | > 1000
5 | 1000 to 5000 | 0.01 to 100 | 501 to 1000 | > 1000 |  | > 1000 | CCc1cc(-c2cncc(C(F)(F)F)c2)ccc1N(C)c1cc2c(cn1)ncn2C [Compound 194, N-(2-ethyl-4-(5-(trifluoromethyl)pyridin-3-yl)phenyl)-N,1-dimethyl-1H-imidazo[4,5-c]pyridin-6-amine] | > 1000
6 | 1000 to 5000 | 0.01 to 100 | 0.01 to 100 | 101 to 500 |  | 501 to 1000 | CCc1cc(C2=CCN(C(=O)CC#N)CC2)ccc1N(C)c1cc2c(cn1)ncn2C [Compound 195, 3-(4-(3-Ethyl-4-(methyl(1-methyl-1H-imidazo[4,5-c]pyridin-6-yl)amino)phenyl)-5,6-dihydropyridin-1(2H)-yl)-3-oxopropanenitrile] | > 1000
7 | 1000 to 5000 | 0.01 to 100 | 0.01 to 100 | 0.01 to 100 |  | 1 to 500 | CCc1cc(C2=CCN(C(=O)C(F)F)CC2)ccc1N(C)c1cc2c(cn1)ncn2C [Compound 197, 1-(4-(3-ethyl-4-(methyl(1-methyl-1H-imidazo[4,5-c]pyridin-6-yl)amino)phenyl)-5,6-dihydropyridin-1(2H)-yl)-2,2-difluoroethanone] | 501 to 1000
8 | 1000 to 5000 | 0.01 to 100 | 0.01 to 100 | 0.01 to 100 |  | 1 to 500 | CCc1cc(C2=CCN(C(=O)COC)CC2)ccc1N(C)c1cc2c(cn1)ncn2C [Compound 199, 1-(4-(3-ethyl-4-(methyl(1-methyl-1H-imidazo[4,5-c]pyridin-6-yl)amino)phenyl)-5,6-dihydropyridin-1(2H)-yl)-2-methoxyethanone] | > 1000
9 | 1 to 1000 | 0.01 to 100 | 0.01 to 100 | 0.01 to 100 |  | 1 to 500 | CCc1cc(-c2cn[nH]c2)ccc1N(C)c1cc2c(cn1)ncn2C [Compound 210, N-(2-ethyl-4-(1H-pyrazol-4-yl)phenyl)-N,1-dimethyl-1H-imidazo[4,5-c]pyridin-6-amine] | > 1000
10 | > 5000 | 0.01 to 100 | 101 to 500 | 501 to 1000 | 501 to 1000 |  | CCc1cc(CNS(=O)(=O)C2CC2)ccc1N(C)c1cc2c(cn1)ncn2C [Compound 227, N-(3-ethyl-4-(methyl(1-methyl-1H-imidazo[4,5-c]pyridin-6-yl)amino)benzyl)cyclopro-panesulfonamide] | > 1000
11 | > 5000 | 0.01 to 100 | 0.01 to 100 | 0.01 to 100 |  | 1 to 500 | CCc1cc(CNS(=O)(=O)CC#N)ccc1N(C)c1cc2c(cn1)ncn2C [Compound 228, 1-cyano-N-(3-ethyl-4-(methyl(1-methyl-1H-imidazo[4,5-c]pyridin-6-yl)amino)benzyl)methane-sulfonamide] | 1 to 500
12 | 1000 to 5000 | 0.01 to 100 | 0.01 to 100 | 101 to 500 |  | 1 to 500 | CCc1cc(C2=CCN(C(=O)C3(O)CC3)CC2)ccc1N(C)c1cc2c(cn1)ncn2C [Compound 229, (4-(3-ethyl-4-(methyl(1-methyl-1H-imidazo[4,5-c]pyridin-6-yl)amino)phenyl)-5,6-dihydropyridin-1(2H)-yl)(1-hydroxycyclopropyl)meth-anone] | > 1000
13 | 1000 to 5000 | 0.01 to 100 | 101 to 500 | 101 to 500 |  | 1 to 500 | CCc1cc(CNS(=O)(=O)N2CCCCC2)ccc1N(C)c1cc2c(cn1)ncn2C [Compound 243, N-(3-ethyl-4-(methyl(1-methyl-1H-imidazo[4,5-c]pyridin-6-yl)amino)benzyl)piperidine-1-sulfonamide] | > 1000
14 | 1000 to 5000 | 0.01 to 100 | 0.01 to 100 | 0.01 to 100 |  | 1 to 500 | CCc1cc(CNS(=O)(=O)CC(F)(F)F)ccc1N(C)c1cc2c(cn1)ncn2C [Compound 244, N-(3-ethyl-4-(methyl(1-methyl-1H-imidazo[4,5-c]pyridin-6-yl)amino)benzyl)-2,2,2-trifluoroethane sulfonamide] | > 1000
15 | 1000 to 5000 | 0.01 to 100 | 101 to 500 | 101 to 500 |  | 501 to 1000 | CCc1cc(CNS(=O)(=O)C(C)C)ccc1N(C)c1cc2c(cn1)ncn2C [Compound 245, N-(3-ethyl-4-(methyl(1-methyl-1H-imidazo[4,5-c]pyridin-6-yl)amino)benzyl)propane-2-sulfonamide] | > 1000
16 | 1000 to 5000 | 0.01 to 100 | 0.01 to 100 | 0.01 to 100 |  | 1 to 500 | CCc1cc(C2=CCN(C(=O)[C@@H](C)O)CC2)ccc1N(C)c1cc2c(cn1)ncn2C [Compound 248, (R)-1-(4-(3-ethyl-4-(methyl(1-methyl-1H-imidazo[4,5-c]pyridin-6-yl)amino)phenyl)-5,6-dihydropyridin-1(2H)-yl)-2-hydroxypropan-1-one] | > 1000
17 | > 5000 | 0.01 to 100 | 0.01 to 100 | 0.01 to 100 |  | 1 to 500 | CCc1cc(CNS(=O)(=O)CC)ccc1N(C)c1cc2c(cn1)ncn2C [Compound 253, N-(3-ethyl-4-(methyl(1-methyl-1H-imidazo[4,5-c]pyridin-6-yl)amino)benzyl)ethane-sulfonamide] | > 1000
18 | > 5000 | 0.01 to 100 | > 1000 | > 1000 |  | > 1000 | CCc1cc(CNC(=O)COC)ccc1N(C)c1cc2c(cn1)ncn2C [Compound 254, N-(3-Ethyl-4-(methyl(1-methyl-1H-imidazo[4,5-c]pyridin-6-yl)amino)benzyl)-2-methoxyacetamide] | > 1000
19 | > 5000 | 0.01 to 100 | 101 to 500 | 0.01 to 100 |  | 1 to 500 | CCc1cc(CNC(=O)C(F)F)ccc1N(C)c1cc2c(cn1)ncn2C [Compound 256, N-(3-ethyl-4-(methyl(1-methyl-1H-imidazo[4,5-c]pyridin-6-yl)amino)benzyl)-2,2-difluoroacetamide] | > 1000
20 | 1000 to 5000 | 0.01 to 100 | 101 to 500 | 101 to 500 | 1 to 500 |  | CCc1cc(CN2CCCS2(=O)=O)ccc1N(C)c1cc2c(cn1)ncn2C [Compound 262, [4-(1,1-Dioxoisothiazolidin-2-ylmethyl)-2-ethyl-phenyl]-methyl-(1-methyl-1H-imidazo[4,5-c]pyridin-6-yl)-amine] | > 1000
